Results taken from article PMC11695783 (Frontiers in Pharmacology, 2024).
Values joined by “and” are separate entries in the source; they are usually repeats but may differ in a detail not shown here. Identical values can stand only once.

Key:
[1] = system: Mycoplasma pneumoniae; test: In vivo pharmacodynamic study: Mycoplasma pneumoniae loads in BALF of infected mice; parameters: species or system BALB/c mice; settings: for microbial reduction in BALF: 96 h; for MPcounts in BALF (AV) / MPcounts in BALF: tiamulin 40 mg/kg IM; for MPcounts in BALF (AV): group AV; for MPcounts in BALF: individual mice, listed as TiamulinIM
Protocol: (§1) Adult BALB/c mice (20–22 g) were divided into a control group, a positive group, and compound 16C groups at low (20 mg/kg), medium (40 mg/kg), and high-dose (80 mg/kg) levels and oral and intramuscular tiamulin treatment groups (40 mg/kg). We formulated the above dose range based on the dose at which tiamulin was approved for injection (10–20 mg/kg) and the dose previously reported (45 mg/kg) ([EMA, 1999]; [Xiao et al., 2016]). In summary, we selected similar doses for compound 16C in vivo study. 40 mg/kg was used as an intermediate value, one-half of it as a low dose, and two times of it as a high dose. To prepare the challenge solution, logarithmic phase culture suspensions were centrifuged at 1700 g for 10 min, and the pellets were suspended in sterile PBS to obtain 1 × 10^9 CFU/mL. Before the challenge, mice were anesthetized with tribromoethanol (250 mg/kg, IP). Mice in the control groups were intratracheally inoculated with sterile PBS, whereas mice in the other groups were intratracheally challenged with 50 μL (1 × 10^9 CFU/mL) M. pneumoniae suspension once a day for 3 days. Compound 16C and tiamulin (tiamulin-IM group) dissolved using the method mentioned in pharmacokinetic studies, and the tiamulin fumarate soluble powder was dissolved in ddH2O for oral administration. After the final challenge, antibiotics were administered at low, medium, and high-dose levels (see above) at 10 a.m. and 10 p.m. daily for 4 consecutive days. Normal saline containing 5% DMSO and 5% Tween-80 was administered as control and positive groups by thigh intramuscular injection. To compare the efficacy of compound 16C and tiamulin under the same route of administration, we used the original tiamulin for intramuscular administration in the same formulation. On the other hand, tiamulin fumarate soluble powder, approved for oral administration to treat animal mycoplasma diseases in China, was administered to mice by gavage. Based on a clinical study of lefamulin in community-acquired bacterial pneumonia (CABP), subjects were administered twice a day and the 96 ± 24 h of starting treatment was an essential point for early clinical response (ECR) ([Paukner et al., 2022]). We therefore stopped treatment at 96 h and sampled at 192 h to explore whether the disease worsened after cessation of treatment. Bronchoalveolar lavage fluid (BALF) and lungs were collected at 0, 96, 192 h (Samples of 0 h were collected before starting treatment, and mice were fed ad libitum without drug treatment during 96–192 h) after the first dose, BALF for cytokine and cytological analysis and lung for histopathological evaluation.
(§2) Bronchoalveolar lavage was performed according to a standardized method ([Van Hoecke et al., 2017]). BALF was obtained following infusion of 0.5 mL PBS via tracheal cannulation into the lung twice (total 1 mL), and 200 µL was used for mycoplasma counts. The remaining BALF was centrifuged at 300 g for 10 min to separate the debris. The supernatants were stored at −80°C, and the debris was resuspended in the same volume of PBS containing red blood cell lysis buffer. A hemocytometer was used to count total cell numbers in BALF, and cell smears (Diff-Quik staining) were prepared to calculate the percentages of neutrophils, macrophages, and lymphocytes. IFN-γ, TNF-α, and CXCL1 levels in BALF samples were assessed using commercial ELISA kits using guidelines recommended by the manufacturer (Elabscience, Wuhan, China). Parallel data for each experimental group at each time point were obtained from six different mice.

[2] = system: IFN-γ; test: IFN-γ in BALF of M. pneumoniae-infected mice (ELISA); format: in vivo, BALB/c mice; settings: tiamulin 40 mg/kg IM; for IFN-γ in BALF (AV): group AV; for IFN-γ in BALF: individual mice, listed as Tiamulin-IM
Protocol: as §1, §2

[3] = system: CXCL1; test: CXCL1 in BALF of M. pneumoniae-infected mice (ELISA); format: in vivo, BALB/c mice; settings: for CXCL1 in BALF (AV): group AV; for CXCL1 in BALF: individual mice
Protocol: as §1, §2

[4] = system: Mycoplasma pneumoniae-infected mice (lung tissue); test: Histopathological assessment of lung tissue (HPS, response and recovery rates) in M. pneumoniae-infected mice; format: in vivo, BALB/c mice; parameters: HPS value (mean) / HPS: scale not given here; settings: for HPS: individual mice, listed as TiamulinIM
Protocol: as §1
Lung tissues were collected at 0, 96, and 192 h following drug administration. Lungs were collected from 6 mice in each group at 96 h and 13–15 mice in each group at 192 h. In addition, the lungs of 8 untreated infected mice were taken at 0 h as initial controls. Lung tissues were fixed in 4% paraformaldehyde, and whole-mount sections of paraffin-embedded lungs were stained with hematoxylin and eosin (H&E). The histopathologic score (HPS) was determined according to published protocols by a single pathologist who was unaware of the treatment status and groups of the animals ([Cimolai et al., 1992]). The HPS was based on individual grading of peribronchiolar/bronchial infiltrate, bronchiolar/bronchial luminal exudate, perivascular infiltrate, and parenchymal pneumoniae.

[5] = tiamulin 40 mg/kg IM, 96 h, listed as Tiamulin-IM
[6] = M. pneumoniae-infected mice, IM, n=13-15
[7] = M. pneumoniae-infected mice, PO, n=13-15
[8] = tiamulin 40 mg/kg IM, from HPS at 192 h

SMILES: C=C[C@]1(C)C[C@@H](OC(=O)CSCCN(CC)CC)[C@]2(C)[C@H](C)CC[C@]3(CCC(=O)[C@H]32)[C@@H](C)[C@@H]1O [tiamulin, Tiamulin, reference compound]
- microbial reduction in BALF ([1]; tiamulin 40 mg/kg IM twice daily 4 d): 2.26 log10 CFU/mL
- MPcounts in BALF (AV) ([1]; 96h): 3.805 Log10CFU/mL
- MPcounts in BALF ([1]; 96h): 3.506 Log10CFU/mL and 3.899 Log10CFU/mL and 3.382 Log10CFU/mL and 5.052 Log10CFU/mL and 3.608 Log10CFU/mL and 3.384 Log10CFU/mL
- MPcounts in BALF (AV) ([1]; 192 h): 3.657 Log10CFU/mL
- MPcounts in BALF ([1]; 192h): 3.57 Log10CFU/mL (2×) and 3.868 Log10CFU/mL and 3.692 Log10CFU/mL and 3.619 Log10CFU/mL and 3.625 Log10CFU/mL
- microbial reduction in BALF ([1]; tiamulin 40 mg/kg PO (tiamulin fumarate soluble powder) twice daily 4 d): 1.17 log10 CFU/mL
- IFN-γ in BALF (AV) ([2]; 96h): 32.2202 pg/mL
- IFN-γ in BALF ([2]; 96 h): 44.0596 pg/mL and 23.033 pg/mL and 20.7601 pg/mL and 28.3723 pg/mL and 44.8757 pg/mL
- IFN-γ in BALF (AV) ([2]; 192 h): 31.227 pg/mL
- IFN-γ in BALF ([2]; 192 h): 40.7875 pg/mL and 41.6067 pg/mL and 42.4252 pg/mL and 23.316 pg/mL and 21.0452 pg/mL and 18.1814 pg/mL
- CXCL1 in BALF (AV) [3, 5]: 35.2692 pg/mL
- CXCL1 in BALF [3, 5]: 32.338 pg/mL and 47.9047 pg/mL and 25.7589 pg/mL and 33.1238 pg/mL and 37.221 pg/mL
- CXCL1 in BALF (AV) ([3]; tiamulin 40 mg/kg IM, 192 h): 47.4109 pg/mL
- CXCL1 in BALF ([3]; tiamulin 40 mg/kg IM, 192 h, listed as Tiamulin-IM): 47.2576 pg/mL and 36.3942 pg/mL and 46.6093 pg/mL and 59.3827 pg/mL
- CXCL1 in BALF (AV) ([3]; tiamulin 40 mg/kg PO (fumarate soluble powder), 96 h): 40.932 pg/mL
- CXCL1 in BALF (AV) ([3]; tiamulin 40 mg/kg PO (fumarate soluble powder), 192 h): 46.955 pg/mL
- Recovery [4, 6]: 35.7%
- Response [4, 6]: 100%
- Recovery [4, 7]: 6.67%
- Response [4, 7]: 86.67%
- HPS value (mean) ([4]; tiamulin 40 mg/kg IM, 96 h): 1
- HPS ([4]; tiamulin 40 mg/kg IM, 96h): 2.5 and 0.5 and 1
- HPS ([4]; tiamulin 40 mg/kg IM, 192h): 0.5 and 0 and 1
- Recovery [4, 8]: 35.7%
- Response [4, 8]: 100%
